From patent publication US20130263297A1, “METHODS OF TREATING CANCER” (Cedars-Sinai Medical Center, priority 2010, published 2013)
“Also recorded” adds a separate entry of the source.

Tests used:
Assay type in all cases: cell-based, human
[1] = system: ARCaPE, ARCaPM and ARCaPE-RANKL cells; assay: In vitro migration and invasion assays (transwell), ARCaP model
Description: (§1) Migration and invasion of cancer cells were examined in 24-well plates using either uncoated or collagen I- and growth factor reduced Matrigel (BD Biosciences, Bedford, Mass.)-coated transwells (8 μm pore size), respectively, as previously described. Cells were serum-starved in RPMI 1640 or T-medium (Invitrogen, Carlsbad, Calif.) overnight and dissociated in 10 mM EDTA/HEPES. The lifted cells were washed and counted, and 5×10^4 cells were seeded in 100 μl of serum-free RPMI 1640 or T-medium in the upper chamber of the transwells in the presence or absence of 1 μg/ml OPG and 400 μl of RPMI 1640 or T-medium supplemented with 5% FBS was placed in the lower chamber of the transwells. After 24 h (migration) and 48 h (invasion) of culturing at 37° C., the migrated and invaded cells were fixed with 10% formaldehyde, stained with 0.5% crystal violet, and the cells at the upper side of the membrane of the chamber were removed and quantified.

[2] = system: LNCaP and LNCaP-RANKL cells; assay: In vitro migration and invasion assays (transwell), LNCaP model
Description: as §1

ARCaPE and ARCaPM cells = assay: EMT marker / RANKL expression by RT-PCR and Western blot and morphology, ARCaP model; set-up: N-cadherin expression in ARCaPE cells (Example 9) / E-cadherin expression in ARCaPE cells (Example 9) / Snail expression in ARCaPE cells (Example 9) / vimentin expression in ARCaPE cells (Example 9): dose or concentration left out as unconfirmed
Description: 4×10^5 ARCaP and PC3 cells were seeded into a 6-well plate and cultured for 48 hrs until they grow to 90% confluence. The RANKL siRNA (50 pmole) and siRNA control (50 pmole) and lipofetamine (2.5 ul) were mixed with 250 ul of OPTI-medium without any FBS, respectively and incubated at RT for 5 minutes. The DNA and lipofetamine were then mixed together and incubated for 20 minutes before adding to the cells in each well. The medium was changed to normal 5% T-medium after 6 h incubation. The cells were incubated at 37° C. for two days before harvesting.
Total of 30 ug of proteins per well from both ARCaPE and ARCaPM cells were run on a Tris-Bis 4-12% gradient polyacrylamide gel (Invitrogen) one and half hours at 150 Volts. The proteins on the gel were then transferred to PVDF membranes using Hoefer semi-dry system. The membranes were incubated with 5% skim milk in PBST (Blocking solution) for 20 min to block non-specific antibody labeling. The RANKL primary antibody was diluted with blocking solution (1:200 and 1:500) and incubated with the membrane for one hour at RT on a rocker or overnight at 4° C. The membrane was washed with PBST (PBS+0.01% TWEEN) three times for a minimum of 5 min each. Secondary rabbit anti-goat antibodies were incubated with the membrane for one hour at RT on a rocker. The membrane was again washed with PBST three times for 5 min each. Chemiluminescent substrate (Western Lightning) was evenly added across the top surface of the membrane, and the membrane was exposed to X-ray films for 30 seconds to 2 minutes depending on the strength of the signals and then developed according to the manufacturer's instructions.
For each reaction, a 50 μl PCR reaction mix containing 5 μl of 10×PCR buffer, 1.5 ul of 50 mM MgCl2, 1 ul of 10 mM dNTP, 1 ul of each forward and reverse primers (RANKL F: […] (SEQ ID NO:1) and RANKL R: […] (SEQ ID NO:2); GAPDH as the positive control), 3 ul cDNA, 37 ul double distilled water, and 0.5 μl of Taq polymerase (Invitrogen) was made. The reaction was first activated at 94° C. for 2 min and run for 36 cycles of 94° C. (30 sec-melting), 60° C. (30 sec-annealing), and 72° C. (60 sec-extension), and lastly incubated at 72° C. for 5 min to amplify the cDNA. A 1% gel electrophoresis was run with 5 μl of 100 by DNA ladder and 10 μl of amplified cDNA of each sample to check the size of the cDNA and also whether it was successfully synthesized under UV light. […]
ARCaPE or ARCaPM cells were seeded into 6-well plate and transiently transfected with flag-tagged RANKL or neo plasmid DNA under the regulation by CMV-promoter, or RANKL siRNA (Santa Cruz Biotechnology, Inc., Santa Cruz, Calif.) with an universal scramble siRNA which serves as the control (Invitrogen, Carlsbad, Calif.). After 48 h of transfection, cells were harvested for western blotting and RT-PCR analyses. For stable transfection, LNCaP cells were first transfected with either flag-tagged RANKL- or neo-control-plasmid cDNA (Sigma-Aldrich, St. Louis, Mo.) in a 6-well plate for 48 h, and the cells were trypsinized and seeded into a 15 cm dish. The cells contain the transfected vector were selected in 400 μg/ml of G418 until individual colonies that contain transfected construct were formed. LNCaP cell colonies expressing flag-tagged RANKL or neo plasmid were picked and the cells were amplified from a 48-well plate to a 10 cm dish in the presence of G418. Stable clones were maintained in 200 μg/ml of G418 and routinely checked for flag-RANKL expression by western blot analysis.
Total RNA from cells was isolated using RNeasy Mini Kit (Qiagen, Valencia, Calif.) according to manufacturer's instructions. […]

[3] = system: RANKL promoter in LNCaP and LNCaP-RANKL cells; assay: RANKL promoter reporter assay, LNCaP model
[4] = system: RANKL promoter in ARCaPE, ARCaPM and ARCaPE-RANKL cells; assay: RANKL promoter reporter assay, ARCaP model
Text: Because the inventors are interested in how RANKL is transcriptionally regulated, the inventors have constructed a 2.5 kb 5′ upstream region of RANKL promoter. The inventors used BAC clones (RP11-86N24) to amplify the promoter region of RANKL from human chromosome 13 contig. The whole promoter region (2.5 kb) was then cloned into pGL3 basic luciferase reporter vector. The inventors placed RANKL promoter reporter into ARCaPE,M, C4-2, and a positive cell line, SaOS-2 to examine the basic promoter activity. Then, the inventors stimulated the RANKL promoter by various growth factors, such as vitamin D3, PTH, and TGFβ.

[5] = system: cMyc site within the RANKL promoter in LNCaP cells; assay: ChIP analysis (quantitative real-time PCR) of cMyc binding to the RANKL promoter
cMet in ARCaPE cells = assay: cMet expression and phosphorylation (Western blot), ARCaPE
[6] = recombinant RANKL 200 and 400, four days

osteoprotegerin [OPG]
increased migration and invasion of ARCaPE-RANKL cells ([1]; OPG treatment): suppressed | migration and invasion of ARCaPM cells ([1]; OPG treatment, 1 μg/ml): antagonized; also recorded: decreased | RANKL-induced increase of migration and invasion of ARCaPE cells ([1]; presence of OPG): abrogated | increased migration and invasion of LNCaP-RANKL cells ([2]; OPG treatment): antagonized; also recorded: suppressed | RANKL-induced increase of migration and invasion of LNCaP cells ([2]; presence of OPG): abrogated | RANKL expression in ARCaPM cells (ARCaPE and ARCaPM cells; 1 ug/ml of OPG): down-regulated | Vimentin in ARCaPE cells (WB) (ARCaPE and ARCaPM cells; RANKL plus OPG): significantly reduced | N-cad and Vimentin expression in ARCaPE cells (RT-PCR) (ARCaPE and ARCaPM cells; RANKL plus OPG compared to 300 ng/ml RANKL): slightly decreased | E-cad expression in ARCaPE cells (RT-PCR, WB) (ARCaPE and ARCaPM cells; RANKL plus OPG compared to RANKL): restore | RANKL-induced EMT and cadherin switch in ARCaPE cells (ARCaPE and ARCaPM cells; addition of OPG): blocked; also recorded: abolished | RANKL-induced RANKL expression in ARCaPE cells (ARCaPE and ARCaPM cells; addition of OPG): attenuated | EMT phenotype of ARCaPM cells (morphology, mesenchymal genes, cadherin switch) (ARCaPE and ARCaPM cells; exposure to OPG (1 μg/ml)): reversed | increased RANKL promoter activity in LNCaP-RANKL cells ([3]; OPG treatment): attenuated | RANKL promoter activity in ARCaPM cells ([4]; OPG treatment): dampen | increased RANKL promoter activity in ARCaPE-RANKL cells ([4]; OPG treatment): attenuated | induction of cMyc binding to the cMyc site ([5]; exposing to OPG): dampened | RANKL- or HGF-induced cMet expression and phosphorylation in ARCaPE cells (cMet in ARCaPE cells; OPG (vs RANKL) or anti-HGF antibody (vs HGF) treatment): abrogated

B1: RANKL: trimerized recombinant RANKL protein (rRANKL), receptor activator of NF-KB ligand (protein, UniProt O14788 69-317, looked up)
extracellular domain: YFRAQMDPNRISEDGTHCIYRILRLHENADFQDTTLESQDTKLIPDSCRRIKQAFQGAVQKELQHIVGSQHIRAEKAMVDGSWLDLAKRSKLEAQPFAHLTINATDIPSGSHKVSLSSWYHDRGWAKISNMTFSNGKLIVNQDGFYYLYANICFRHHETSGDLATEYLQLMVYVTKTSIKIPSSHTLMKGGSTKYWSGNSEFHFYSINVGGFFKLRSGEEISIEVSNPSLLDPDQDATYFGAFKVRDID
modifications: extracellular domain trimerized
migration and invasion of ARCaPE cells ([1]; recombinant RANKL treatment): increased | migration and invasion of LNCaP cells ([2]; recombinant RANKL treatment): increased | E-cadherin expression in ARCaPE cells (ARCaPE and ARCaPM cells; 200 ng/ml recombinant RANKL): down-regulated | N-cadherin expression in ARCaPE cells (ARCaPE and ARCaPM cells; 200 ng/ml recombinant RANKL): up-regulated | Snail, vimentin, and RANKL expression in ARCaPE cells (ARCaPE and ARCaPM cells; 200 ng/ml recombinant RANKL): up-regulation | cell morphology of ARCaPE cells (ARCaPE and ARCaPM cells; 200 ng/ml recombinant RANKL protein, 8-day period): gradually changed their morphology from cobble-stoned clusters to more dispersed and fibroblastic-like appearance | Vimentin in ARCaPE cells (WB) (ARCaPE and ARCaPM cells; RANKL alone): only slightly increased | RANKL expression at mRNA and protein levels in ARCaPE cells (ARCaPE and ARCaPM cells; RANKL treatment): up-regulated | N-cadherin expression in ARCaPE cells (Example 9) (ARCaPE and ARCaPM cells; [6]): slightly increased | Snail expression in ARCaPE cells (Example 9) (ARCaPE and ARCaPM cells; [6]): no effect | vimentin expression in ARCaPE cells (Example 9) (ARCaPE and ARCaPM cells; [6]): increases | E-cadherin expression in ARCaPE cells (Example 9) (ARCaPE and ARCaPM cells; recombinant RANKL 200 and 400, four days, RNA and protein level): decrease | RANKL promoter activity in LNCaP cells ([3]; RANKL treatment): induction | RANKL promoter activity in ARCaPE and ARCaPM cells ([4]; RANKL treatments): induced | increase of cMyc binding to the cMyc site ([5]; RANKL-treated LNCaP cells, quantitative real-time PCR): ~11 fold | cMet expression and phosphorylated level of cMet in ARCaPE cells (cMet in ARCaPE cells; exogeneous RANKL or HGF treatment): significantly increased
